The target in the test is T1, human mineralocorticoid receptor (MR) (Homo sapiens, UniProt P08235).
T1 construct: expressed in transfected cells
T1 sequence (P08235 734-984 limits assumed): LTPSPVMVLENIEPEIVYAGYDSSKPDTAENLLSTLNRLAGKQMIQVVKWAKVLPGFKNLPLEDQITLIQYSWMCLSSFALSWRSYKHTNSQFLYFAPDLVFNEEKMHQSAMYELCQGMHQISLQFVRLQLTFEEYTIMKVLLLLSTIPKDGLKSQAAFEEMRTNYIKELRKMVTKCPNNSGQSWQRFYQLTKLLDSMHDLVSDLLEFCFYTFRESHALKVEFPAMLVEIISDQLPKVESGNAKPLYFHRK
Briefly: Cellular in vitro assay to determine the inhibitory MR activity (GAL4-MR chimera luciferase reporter in CHO K1 cells). It counts as cell-based. The conditions noted are these: aldosterone as agonist. The text has this: 1. Cellular In Vitro Assay to Determine the Inhibitory MR Activity and MR Selectivity Compared with Other Steroid Hormone Receptors
Antagonists of the human mineralocorticoid receptor (MR) are identified, and the activity of the compounds described herein is quantified with the aid of a recombinant cell line. The cell is originally derived from a hamster ovary epithelial cell (Chinese Hamster Ovary, CHO K1, ATCC: American Type Culture Collection, Va. 20108, USA).
An established chimera system in which the ligand-binding domains of human steroid hormone receptors are fused to the DNA-binding domain of the yeast transcription factor GAL4 is used in this CHO K1 cell line. The GAL4-steroid hormone receptor chimeras produced in this way are cotransfected and stably expressed with a reporter construct in the CHO cells.
To generate the GAL4-steroid hormone receptor chimeras, the GAL4 DNA binding domain (amino acids 1-147) from the vector pFC2-dbd (from Stratagene) is cloned with the PCR-amplified ligand-binding domains of the mineralocorticoid receptor (MR, amino acids 734-985), of the glucocorticoid receptor (GR, amino acids 443-777), of the progesterone receptor (PR, amino acids 680-933) and of the androgen receptor (AR, amino acids 667-919) into the vector pIRES2 (from Clontech). The reporter construct, which comprises five copies of the GAL4 binding site upstream of a thymidine kinase promoter, leads to expression of firefly-luciferase (Photinus pyralis) after activation and binding of the GAL4-steroid hormone receptor chimeras by the respective specific agonists aldosterone (MR), dexamethasone (GR), progesterone (PR) and dihydrotestosterone (AR).
The MR, GR, PR and AR cells are plated out in medium (Optimem, 2.5% FCS, 2 mM glutamine, 10 mM HEPES) in 96- (or 384- or 1536-) well microtiter plates on the day before the assay and are kept in a cell incubator (96% humidity, 5% v/v CO2, 37° C.). On the day of the assay, the substances to be tested are taken up in the abovementioned medium and added to the cells. About 10 to 30 minutes after addition of the test substances, the respective specific agonists of the steroid hormone receptors are added. After a further incubation time of 5 to 6 hours, the luciferase activity is measured with the aid of a video camera. The measured relative light units as a function of the substance concentration result in a sigmoidal stimulation curve. The IC50 values are calculated with the aid of the GraphPad PRISM computer program (Version 3.02).
A general note: Reporter assays use an easily measured gene product as a stand-in for the process of interest.

Experimental findings from patent US8404723B2, “3-cyano 5-thiazaheteroaryl-dihydropyridine and the use thereof for the treatment of cardiovascular diseases” (Bayer Intellectual Property GmbH, priority 2006, dated 2013) are described below.

As to `COc1cc(C#N)ccc1C1C(C#N)=C(C)NC(C)=C1c1nc(C)cs1` (stereo not shown) [Example 1, 4-(4-Cyano-2-methoxyphenyl)-2,6-dimethyl-5-(4-methyl-1,3-thiazol-2-yl)-1,4-dihydropyridine-3-carbonitrile], the IC50 was determined as 94 nM. The value for `COc1cc(C#N)ccc1C1C(C#N)=C(C(F)(F)F)NC(C)=C1c1nc(C)cs1` (stereo not shown) [Example 3, 4-(4-Cyano-2-methoxyphenyl)-6-methyl-5-(4-methyl-1,3-thiazol-2-yl)-2-(trifluoromethyl)-1,4-dihydropyridine-3-carbonitrile] was 10 nM; that for `CC1=C(C#N)C(c2cccc3c(=O)cc(C)oc23)C(c2nc(C)cs2)=C(C)N1` (stereo not shown) [Example 4, 2,6-Dimethyl-4-(2-methyl-4-oxo-4H-chromen-8-yl)-5-(4-methyl-1,3-thiazol-2-yl)-1,4-dihydro-pyridine-3-carbonitrile] was 95 nM.

On to `COc1cc(C#N)ccc1C1C(C#N)=C(C)NC(C)=C1c1nc2ccccc2s1` (stereo not shown) [Example 12, 5-(1,3-Benzothiazol-2-yl)-4-(4-cyano-2-methoxyphenyl)-2,6-dimethyl-1,4-dihydropyridine-3-carbonitrile], for which the half-inhibitory concentration (IC50) came out at 74 nM. The result for `CC1=C(C#N)C(c2cccc3ncc(C)cc23)C(c2nc(C)cs2)=C(C)N1` (stereo not shown) [Example 18, 2,6-Dimethyl-4-(3-methylquinolin-5-yl)-5-(4-methyl-1,3-thiazol-2-yl)-1,4-dihydropyridine-3-carbonitrile] reads 278 nM; that for `CCc1cnc(C2=C(C)NC(C)=C(C#N)C2c2ccc(C#N)cc2OC)s1` (stereo not shown) [Example 23, 4-(4-Cyano-2-methoxyphenyl)-5-(5-ethyl-1,3-thiazol-2-yl)-2,6-dimethyl-1,4-dihydropyridine-3-carbonitrile], 18 nM; that for `COc1cc(C#N)ccc1C1C(C#N)=C(C)NC(C)=C1c1nnc(C)s1` (stereo not shown) [Example 24, 4-(4-Cyano-2-methoxyphenyl)-2,6-dimethyl-5-(5-methyl-1,3,4-thiadiazol-2-yl)-1,4-dihydropyridine-3-carbonitrile], 320 nM.

The IC50 is the concentration needed to halve the response being measured. Read a low IC50 as inhibition by little substance.
